Data from the supplement of paper PMC10307832.

Assays:
Experiment in all cases: relative viability (nuclei count vs DMSO), 5 days (fraction); higher = more cells survive
Crenolanib + Foretinib = compound: CC1(COc2ccc3c(c2)ncn3-c2ccc3cccc(N4CCC(N)CC4)c3n2)COC1 [Crenolanib] + COc1cc2c(Oc3ccc(NC(=O)C4(C(=O)Nc5ccc(F)cc5)CC4)cc3F)ccnc2cc1OCCCN1CCOCC1 [Foretinib] (partner 0.25 µM)
Summary of the method: (§1)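 Lung cancer cell lines were seeded in 1536-well plates and dosed by pin tool the next day, with either a single drug or a fixed anchor-drug dose combined with five library-drug doses (not always all listed) spaced in √10 steps. Five days later, one step fixed the cells and stained their nuclei (final 0.05% Triton X-100, 1% formaldehyde, 1 ug/ml Hoechst), and nuclei were counted on 4× images. Relative viability is the nuclei count in treated wells divided by the count in vehicle wells, and each value is the median of duplicate plates.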

Tivantinib + Pictilisib = compound: O=C1NC(=O)[C@@H](c2cn3c4c(cccc24)CCC3)[C@@H]1c1c[nH]c2ccccc12 [Tivantinib] + CS(=O)(=O)N1CCN(Cc2cc3nc(-c4cccc5[nH]ncc45)nc(N4CCOCC4)c3s2)CC1 [Pictilisib] (partner 1 µM)
Summary of the method: as §1

Crenolanib + Crizotinib = compound: CC1(COc2ccc3c(c2)ncn3-c2ccc3cccc(N4CCC(N)CC4)c3n2)COC1 [Crenolanib] + C[C@@H](Oc1cc(-c2cnn(C3CCNCC3)c2)cnc1N)c1c(Cl)ccc(F)c1Cl [Crizotinib] (partner 1 µM)
Summary of the method: as §1

Crenolanib + Linsitinib = compound: CC1(COc2ccc3c(c2)ncn3-c2ccc3cccc(N4CCC(N)CC4)c3n2)COC1 [Crenolanib] + C[C@]1(O)C[C@@H](c2nc(-c3ccc4ccc(-c5ccccc5)nc4c3)c3c(N)nccn32)C1 [Linsitinib] (partner 1 µM)
Summary of the method: as §1

Row | Cell Line | relative viability (Crenolanib + Foretinib; first compound 0.01 µM) | relative viability (Crenolanib + Foretinib; first compound 0.03162 µM) | relative viability (Crenolanib + Foretinib; first compound 0.1 µM) | relative viability (Crenolanib + Foretinib; first compound 0.3162 µM) | relative viability (Crenolanib + Foretinib; first compound 1 µM) | relative viability (Tivantinib + Pictilisib; first compound 0.01 µM) | relative viability (Tivantinib + Pictilisib; first compound 0.03162 µM) | relative viability (Tivantinib + Pictilisib; first compound 0.1 µM) | relative viability (Tivantinib + Pictilisib; first compound 0.3162 µM) | relative viability (Crenolanib + Crizotinib; first compound 0.01 µM) | relative viability (Crenolanib + Crizotinib; first compound 0.03162 µM) | relative viability (Crenolanib + Crizotinib; first compound 0.1 µM) | relative viability (Crenolanib + Crizotinib; first compound 0.3162 µM) | relative viability (Crenolanib + Crizotinib; first compound 1 µM) | relative viability (Crenolanib + Linsitinib; first compound 0.01 µM) | relative viability (Crenolanib + Linsitinib; first compound 0.03162 µM) | relative viability (Crenolanib + Linsitinib; first compound 0.1 µM) | relative viability (Crenolanib + Linsitinib; first compound 0.3162 µM) | relative viability (Crenolanib + Linsitinib; first compound 1 µM)
1 | NCI-H1563 | 0.952 | 0.884 | 0.852 | 0.899 | 0.948 | 0.608 | 0.6 | 0.651 | 0.674 | 0.867 | 0.841 | 0.862 | 0.848 | 0.847 | 1.12 | 1.3 | 1.18 | 1.23 | 1.06
2 | NCI-H1915 | 1.09 | 1.09 | 1.04 | 1.1 | 0.992 | 0.902 | 0.92 | 0.93 | 1.04 | 0.9 | 0.896 | 0.868 | 0.856 | 0.855 | 1.13 | 1.13 | 1.07 | 1.09 | 1.06
3 | NCI-H661 | 0.972 | 0.969 | 0.99 | 1.07 | 1.02 | 0.472 | 0.394 | 0.387 | 0.269 | 1.04 | 1.08 |  | 1.05 | 1.15 | 0.628 | 0.527 | 0.499 | 0.544 | 0.497
4 | COR-L23 | 1 | 0.958 | 0.925 | 0.991 | 0.927 | 0.809 | 0.63 | 0.762 | 0.98 | 0.678 | 0.722 | 0.577 | 0.718 | 0.667 | 1.06 | 1.02 | 0.884 | 1.15 | 0.88
5 | COR-L 105 | 0.972 | 1.18 | 0.848 | 1.32 | 1.05 | 0.401 | 0.335 | 0.389 | 0.406 | 0.845 | 0.604 | 0.731 | 0.838 | 0.73 | 0.873 | 1.09 | 0.748 | 1.22 | 0.92
6 | LK-2 | 1.27 | 1.66 | 1.12 | 1.35 | 1.36 | 0.685 |  | 0.567 | 0.496 | 0.238 | 0.24 | 0.219 | 0.227 | 0.213 | 0.675 | 0.626 | 0.624 | 0.425 | 0.562
7 | 201T | 1.19 | 1.1 | 1.03 | 1.12 | 1.06 | 0.713 | 0.569 | 0.673 | 0.694 | 1.04 | 1.02 | 1.01 | 1.04 | 0.976 | 1.05 | 1.04 | 1.01 | 1.04 | 1.11
8 | HCC-78 | 0.584 | 0.59 |  | 0.545 | 0.525 | 0.241 | 0.177 | 0.204 | 0.196 | 0.371 | 0.367 | 0.393 | 0.34 | 0.31 | 0.654 | 0.512 | 0.496 | 0.518 | 0.506
9 | NCI-H647 | 1.25 | 1.09 | 1.11 | 1.23 | 1.28 | 0.45 | 0.341 | 0.409 | 0.371 | 1.07 | 1.03 | 1.03 | 1.01 | 1.03 | 1.14 | 1.11 | 1.09 | 1.31 | 1.34
10 | HARA | 0.956 | 0.979 | 0.84 | 0.912 | 0.911 | 0.389 | 0.237 | 0.474 | 0.253 | 1.24 | 1 | 0.938 | 0.924 | 1 | 0.914 | 0.886 | 0.983 | 0.975 | 0.926
11 | NCI-H650 | 1.09 | 0.986 | 0.991 | 1.02 | 1 | 0.835 |  | 0.817 | 0.8 | 0.968 | 0.706 | 0.805 | 0.5 | 0.644 | 1.06 | 0.969 | 0.952 | 0.923 | 0.715
12 | NCI-H2085 | 1.01 | 0.845 | 0.847 | 1.04 | 1.12 | 0.477 | 0.471 | 0.392 | 0.515 | 0.942 | 0.993 | 0.902 | 0.804 | 0.845 | 0.998 | 0.896 | 0.913 | 0.932 | 0.873
13 | NCI-H2347 | 0.879 | 0.757 |  | 1.02 | 0.901 | 0.986 | 0.724 | 0.514 | 0.525 | 0.934 | 0.624 | 0.506 | 0.59 | 0.72 | 0.972 | 1.02 | 0.736 | 1.04 | 0.873
14 | NCI-H1944 | 0.857 | 0.865 | 0.872 | 0.887 | 0.817 | 0.308 | 0.294 | 0.332 | 0.369 | 1.05 | 1.19 | 1.03 | 1.21 | 1.07 | 1.18 | 1.15 | 1.21 | 1.32 | 1.17
15 | NCI-H596 | 0.774 | 0.89 | 0.752 | 0.78 | 1.03 | 0.427 | 0.39 | 0.379 | 0.334 | 1.01 | 1.07 | 0.87 | 0.904 | 1.04 | 1.01 | 0.994 | 0.97 | 0.961 | 1.18
16 | A549 | 0.996 | 0.894 | 0.891 | 1.04 | 1.01 | 0.495 | 0.518 | 0.468 | 0.449 | 0.853 | 0.76 | 0.769 | 0.99 | 0.717 | 0.674 | 0.598 | 0.529 | 0.69 | 0.533
17 | NCI-H520 | 0.671 | 0.89 | 0.651 | 0.724 | 0.746 | 0.292 | 0.237 | 0.268 | 0.262 | 0.743 | 0.915 | 0.802 | 0.933 | 0.983 | 0.89 | 1.07 | 0.853 | 1.08 | 0.868
